From article PMC3985417 (Journal of Medicinal Chemistry, 2014) come the findings set out here.

This data set is described as follows: in vitro. The note with it: human, HEK293 cell homogenate.

As for `CN(C)CCCN1c2ccccc2CCc2ccccc21` [Imipramine], the fraction unbound at 4 h was found to be 0.59 ± 0.013.
